Results published in patent publication US9505726B2, “Substituted biphenyl amides as P2X3 and P2X2/3 antagonists” (Roche Palo Alto LLC, priority 2009, dated 2016).

Target: T1, rat P2X3 receptor (Rattus norvegicus, UniProt P49654)
T1 construct: expressed in transfected cells; host or cells: CHO-K1
T1 sequence (P49654 1-397): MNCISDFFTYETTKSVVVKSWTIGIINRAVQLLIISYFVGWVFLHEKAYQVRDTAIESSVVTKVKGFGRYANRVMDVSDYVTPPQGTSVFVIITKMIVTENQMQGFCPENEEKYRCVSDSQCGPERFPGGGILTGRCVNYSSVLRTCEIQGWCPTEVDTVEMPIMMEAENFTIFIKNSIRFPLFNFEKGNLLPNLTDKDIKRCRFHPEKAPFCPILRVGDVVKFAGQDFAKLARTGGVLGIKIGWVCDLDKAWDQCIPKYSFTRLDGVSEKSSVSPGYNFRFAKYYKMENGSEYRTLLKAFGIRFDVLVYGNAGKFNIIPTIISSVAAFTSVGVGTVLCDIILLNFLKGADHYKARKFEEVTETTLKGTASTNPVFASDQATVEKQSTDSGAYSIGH
Experiment: P2X3 FLIPR (Fluorometric Imaging Plate Reader) assay
Assay type: cell-based
Details: CHO-K1 cells transfected with cloned rat P2X3; agonist α,β-meATP 1 μM; Fluo-3 AM calcium fluorescence
Method: CHO-K1 cells were transfected with cloned rat P2X3 or human P2X2/3 receptor subunits and passaged in flasks. 18-24 hours before the FLIPR experiment, cells were released from their flasks, centrifuged, and resuspended in nutrient medium at 2.5×10^5 cells/ml. The cells were aliquoted into black-walled 96-well plates at a density of 50,000 cells/well and incubated overnight in 5% CO2 at 37° C. On the day of the experiment, cells were washed in FLIPR buffer (calcium- and magnesium-free Hank's balanced salt solution, 10 mM HEPES, 2 mM CaCl2, 2.5 mM probenecid; FB). Each well received 100 μl FB and 100 μl of the fluorescent dye Fluo-3 AM [2 μM final conc.]. After a 1 hour dye loading incubation at 37° C., the cells were washed 4 times with FB, and a final 75 μl/well FB was left in each well.
Test compounds (dissolved in DMSO at 10 mM and serially diluted with FB) or vehicle were added to each well (25 μl of a 4× solution) and allowed to equilibrate for 20 minutes at room temperature. The plates were then placed in the FLIPR and a baseline fluorescence measurement (excitation at 488 nm and emission at 510-570 nm) was obtained for 10 seconds before a 100 μl/well agonist or vehicle addition. The agonist was a 2X solution of α,β-meATP producing a final concentration of 1 μM (P2X3) or 5 μM (P2X2/3). Fluorescence was measured for an additional 2 minutes at 1 second intervals after agonist addition. A final addition of ionomycin (5 μM, final concentration) was made to each well of the FLIPR test plate to establish cell viability and maximum fluorescence of dye-bound cytosolic calcium. Peak fluorescence in response to the addition of α,β-meATP (in the absence and presence of test compounds) was measured and inhibition curves generated using nonlinear regression. PPADS, a standard P2X antagonist, was used as a positive control.

| SMILES | P2X3 (pIC50 values for the P2X3 receptor) |
| --- | --- |
| COCC(C)NC(=O)c1cc(NC(=O)c2ccccc2)cc(-c2ccc(C)cc2)c1 (stereo not drawn) [Compound 5, 5-Benzoylamino-4′-methyl-biphenyl-3-carboxylic acid (2-methoxy-1-methyl-ethyl)-amide] | 5.69 |
| COCC(C)NC(=O)c1cc(NC(=O)c2ccc(C)cc2C)cc(-c2ccc(C)cc2)c1 (stereo not drawn) [Compound 8, 5-(2,4-Dimethyl-benzoylamino)-4′-methyl-biphenyl-3-carboxylic acid (2-methoxy-1-methyl-ethyl)-amide] | 5.35 |
| Cc1ccc(-c2cc(C(=O)NC(C)c3cnccn3)cc(N(C)C(=O)C3CCCC3)c2)cc1 (stereo not drawn) [Compound 51, 5-(Cyclopentanecarbonyl-methyl-amino)-4′-methyl-biphenyl-3-carboxylic acid (1-pyrazin-2-yl-ethyl)-amide] | 7.57 |
| COCC(C)NC(=O)c1cc(NC(=O)c2nc(C)oc2C)cc(-c2ccc(C)cc2)c1 (stereo not drawn) [Compound 13, 2,5-Dimethyl-oxazole-4-carboxylic acid [5-(2-methoxy-1-methyl-ethylcarbamoyl)-4′-methyl-biphenyl-3-yl]-amide] | 5.93 |
| COCC(C)NC(=O)c1cc(NC(=O)c2ccco2)cc(-c2ccc(C)cc2)c1 (stereo not drawn) [Compound 3, Furan-2-carboxylic acid [5-(2-methoxy-1-methyl-ethylcarbamoyl)-4′-methyl-biphenyl-3-yl]-amide] | 5.66 |
| COCC(C)NC(=O)c1cc(NC(=O)C2CCCCC2)cc(-c2ccc(C)cc2)c1 (stereo not drawn) [Compound 7, 5-(Cyclohexanecarbonyl-amino)-4′-methyl-biphenyl-3-carboxylic acid (2-methoxy-1-methyl-ethyl)-amide] | 5.49 |
| CC(=O)N1CCC(C(=O)N(C)c2cc(C(=O)NC(C)c3cnccn3)cc(-c3ccc(C)cc3)c2)CC1 (stereo not drawn) [Compound 61, 1-Acetyl-piperidine-4-carboxylic acid methyl-[4′-mcthyl-5-(1-pyrazin-2-yl-ethylcarbamoyl)-biphenyl-3-yl]-amide] | 5.7 |
| COCC(C)NC(=O)c1cc(NC(=O)c2cc(C)cs2)cc(-c2ccc(C)cc2)c1 (stereo not drawn) [Compound 1, 4-Methyl-thiophene-2-carboxylic acid [5-(2-methoxy-1-methyl-ethylcarbamoyl)-4′-methyl-biphenyl-3-yl]-amide] | 6.31 |
| CCN(C(=O)CC(C)C)c1cc(C(=O)NC(C)c2cnccn2)cc(-c2ccc(C)cc2)c1 (stereo not drawn) [Compound 29, 5-[Ethyl-(3-methyl-butyryl)-amino]-4′-methyl-biphenyl-3-carboxylic acid (1-pyrazin-2-yl-ethyl)-amide] | 7.38 |
| Cc1ccc(-c2cc(C(=O)NC(C)c3cnccn3)cc(N(C)C(=O)c3snnc3C)c2)cc1 (stereo not drawn) [Compound 36, 4-Methyl-[1,2,3]thiadiazole-5-carboxylic acid methyl-[4′-methyl-5-(1-pyrazin-2-yl-ethylcarbamoyl)-biphenyl-3-yl]-amide] | 5.3 |
| CCN(C(=O)OC)c1cc(C(=O)NC(C)c2cnccn2)cc(-c2ccc(C)cc2)c1 (stereo not drawn) [Compound 39, Ethyl-[4′-methyl-5-(1-pyrazin-2-yl-ethylcarbamoyl)-biphenyl-3-yl]-carbamic acid methyl ester] | 7.28 |
| CCC(=O)N(C)c1cc(C(=O)N[C@H](C)CN2CCOCC2)cc(-c2ccc(C)cc2)c1 [Compound 19, 4′-Methyl-5-(methyl-propionyl-amino)-biphenyl-3-carboxylic acid ((R)-1-methyl-2-morpholin-4-yl-ethyl)-amide] | 6.88 |
| Cc1ccc(-c2cc(NC(=O)C(C)C)cc(C(=O)NC(C)c3cnccn3)c2)cc1 (stereo not drawn) [Compound 42, 5-Isobutyrylamino-4′-methyl-biphenyl-3-carboxylic acid (1-pyrazin-2-yl-ethyl)-amide] | 5.53 |
| CCC(=O)N(C)c1cc(C(=O)NC(C)COC)cc(-c2ccc(C)cc2)c1 (stereo not drawn) [Compound 18, 4′-Methyl-5-(methyl-propionyl-amino)-biphenyl-3-carboxylic acid (2-methoxy-1-methyl-ethyl)-amide] | 5.35 |
| COCC(C)NC(=O)c1cc(NC(=O)c2cscn2)cc(-c2ccc(C)cc2)c1 (stereo not drawn) [Compound 11, Thiazole-4-carboxylic acid [5-(2-methoxy-1-methyl-ethylcarbamoyl)-4′-methyl-biphenyl-3-yl]-amide] | 5.56 |
| CCN(C(=O)C(C)C)c1cc(C(=O)N[C@@H](C)CO)cc(-c2ccc(C)cc2)c1 [Compound 49, 5-(Ethyl-isobutyryl-amino)-4′-methyl-biphenyl-3-carboxylic acid ((S)-2-hydroxy-1-methyl-ethyl)-amide] | 8.38 |
| CC(C)C(=O)N(C)c1cc(C(=O)NC(C)c2cnccn2)cc(-c2ccc(Cl)cc2Cl)c1 (stereo not drawn) [Compound 64, 2′,4′-Dichloro-5-(isobutyryl-methyl-amino)-biphenyl-3-carboxylic acid (1-pyrazin-2-yl-ethyl)-amide] | 7.5 |
| Cc1ccc(-c2cc(C(=O)NC(C)c3cnccn3)cc(N(C)C(=O)C(C)C)c2)c(Cl)c1 (stereo not drawn) [Compound 54, 2′-Chloro-5-(isobutyryl-methyl-amino)-4′-methyl-biphenyl-3-carboxylic acid (1-pyrazin-2-yl-ethyl)-amide] | 6.29 |
| Cc1ccc(-c2cc(C(=O)NC(C)c3cnccn3)cc(N(C)C(=O)C(C)(C)C)c2)cc1 (stereo not drawn) [Compound 32, 5-[(2,2-Dimethyl-propionyl)-methyl-amino]-4′-methyl-biphenyl-3-carboxylic acid (1-pyrazin-2-yl-ethyl)-amide] | 8.01 |
| COCC(C)NC(=O)c1cc(NC(=O)c2cscc2OC)cc(-c2ccc(C)cc2)c1 (stereo not drawn) [Compound 17, 4-Methoxy-thiophene-3-carboxylic acid [5-(2-methoxy-1-methyl-ethylcarbamoyl)-4′-methyl-biphenyl-3-yl]-amide] | 5.87 |
| CC(NC(=O)c1cc(-c2ccc(Cl)cc2)cc(N(C)C(=O)N2CCOCC2)c1)c1cnccn1 (stereo not drawn) [Compound 44, Morpholine-4-carboxylic acid [4′-chloro-5-(1-pyrazin-2-yl-ethylcarbamoyl)-biphenyl-3-yl]-methyl-amide] | 5.17 |
| CC(C)C(=O)N(C)c1cc(C(=O)NC(C)c2cnccn2)cc(-c2ccc(Cl)cn2)c1 (stereo not drawn) [Compound 67, 3-(5-Chloro-pyridin-2-yl)-5-(isobutyryl-methyl-amino)-N-(1-pyrazin-2-yl-ethyl)-benzamide] | 7.75 |
| CCC(=O)N(c1cc(C(=O)NC(C)c2cnccn2)cc(-c2ccc(C)cc2)c1)c1ccncn1 (stereo not drawn) [Compound 25, 4′-Methyl-5-(propionyl-pyrimidin-4-yl-amino)-biphenyl-3-carboxylic acid (1-pyrazin-2-yl-ethyl)-amide] | 6.16 |
| CCN(C(=O)c1cccnc1)c1cc(C(=O)NC(C)c2cnccn2)cc(-c2ccc(C)cc2)c1 (stereo not drawn) [Compound 31, N-Ethyl-N-[4′-methyl-5-(1-pyrazin-2-yl-ethylcarbamoyl)-biphenyl-3-yl]-nicotinamide] | 5.91 |
| CCN(C(=O)C1CCOCC1)c1cc(C(=O)NC(C)c2cnccn2)cc(-c2ccc(C)cc2)c1 (stereo not drawn) [Compound 41, Tetrahydro-pyran-4-carboxylic acid ethyl-[4′-methyl-5-(1-pyrazin-2-yl-ethylcarbamoyl)-biphenyl-3-yl]-amide] | 6.86 |
| CC(C)C(=O)N(C)c1cc(C(=O)N[C@@H](C)CO)cc(-c2ccc(Cl)cn2)c1 [Compound 69, 3-(5-Chloro-pyridin-2-yl)-N-((S)-2-hydroxy-1-methyl-ethyl)-5-(isobutyryl-methyl-amino)-benzamide] | 6.86 |
| CC(=O)N(c1cc(C(=O)NC(C)c2cnccn2)cc(-c2ccc(C)cc2)c1)c1ccncn1 (stereo not drawn) [Compound 24, 5-(Acetyl-pyrimidin-4-yl-amino)-4′-methyl-biphenyl-3-carboxylic acid (1-pyrazin-2-yl-ethyl)-amide] | 6.31 |
